Measurements: patent publication US9023998B2, “Near infrared fluorogen and fluorescent activating proteins for in vivo imaging and live-cell biosensing” (Carnegie Mellon University, priority 2013, dated 2015)

Tests used:
mL9.3 (SEQ. ID. NO. 20) = assay: Fluorogen activation by purified monomeric FAP mL9.3 (spectra); assay type: biochemical; conditions: purified protein, about 300 nM fluorogen, PBS pH 7.4
Text: While the peptide linker that joins the VL units in dL9.2 (SEQ. ID. NO. 2) and dL9.5 (SEQ. ID. NO. 3) enhance fluorogen binding affinity and binding rate by reducing the entropic cost of assembly around the fluorogen, the linker is not strictly necessary for fluorogenic activation. […] In panels C and D, corresponding spectra from mL9.5:SKC602 (SEQ. ID. NO. 21:SKC602) and mL9.5:SKC728 (SEQ. ID. NO. 21:SKC728) fluoromodules are shown. Spectra were obtained using a Quantamaster™ fluorometer (PTI) equipped with dual monochromators on both excitation and emission light paths.
To facilitate ligase-dependent cloning methods, the above procedure was repeated for dL9.5 (SEQ. ID. NO. 6), using otherwise identical primers that appended BspEI (TCCGGA) (SEQ. ID. NO. 25) and BamHI (GGATCC) (SEQ. ID. NO. 26) sites directly at the 5′ and 3′ termini, respectively, of the dL9.5 gene (SEQ. ID. NO. 6). The resulting plasmid, designated pPNL9z-dL9.5, could be digested with BspEI (SEQ. ID. NO. 25) and BamHI (SEQ. ID. NO. 26) to produce a yeast expression vector backbone capable of receiving inserts with like-digested termini. […]

[1] = tested on: HEK293 cells expressing dL9.5; assay: Confocal imaging of HEK293 cells expressing dL9.5 in various cellular contexts; assay type: cell-based; conditions: HEK293; SKC728 100 nM, SKC602 50 nM
Text: The expressed construct was imaged using an Andor Revolution XD spinning disk confocal (GFP 488:525/50, dL9.5 (SEQ. ID. NO. 3) 640:685/70 AND 640:794/160, 60×1.49 NA oil immersion objective) and the results are shown in FIG. 5. […] The fluorogen was not washed away prior to imaging.
Imaging conditions were similar to those described for obtaining FIG. 5.
CYTOPLASM. HEK293 cells were transfected with, and stably expressing the pCYdL9.5eGFP vector, were thawed from a cryostock and maintained in DMEM/10% FBS for four passages prior to fluorescence imaging procedures. Immediately prior to imaging, growth media was exchanged for HBSS (pH 7.4) supplemented with SKC602 (200 nM final concentration). The cells were allowed to recover at 37° C. with 5% CO2 for 20-30 minutes, and fluoromodule activity under in vivo conditions within the cytoplasm was imaged using an Andor Revolution XD spinning disk confocal microscope (60×1.49 NA oil immersion objective, excitation at 640 nm, emission in far-red: 685/70 filter, and NIR: 794/160 filter). The same cells were also imaged for eGFP activity (excitation at 488 nm, emission via 525/50 nm filter). […] In accordance with the fluoromodule emission spectrum shown in FIG. 2, this emission filter allows the microscope camera to detect a large portion of the fluoromodule emission, and consequently, the observed signal appears brighter. One must note that intensities cannot be directly compared between channels, due to considerations non-exclusively including: differences in excitation light intensities, exposure and capture times, the transmission profile of each emission filter, and the quantum efficiency of the iXON3 DU897 (back-illuminated) camera across the range of emitted wavelengths. An evenly distributed fluorescence signal is observed in these cells, with no bright foci that would indicate protein aggregation, and the fluoromodule signal intensity scales with that of eGFP.
PLASMA MEMBRANE. […]

Row | Structure (SMILES) | Induction of NIR fluorescence by mL9.3 (mL9.3 (SEQ. ID. NO. 20)) | Membrane permeance shown by subcellular labeling (plasma membrane exterior / mitochondrial matrix) [1]
1 | CN(C)c1ccc(/C=C/C(=C2C=CC(=[N+](C)C)C=C2)c2ccc(N(C)C)cc2)cc1 [SKC602, (E)-N-(4-(1,3-bis(4-(dimethylamino)phenyl)allylidene)cyclohexa-2,5-dien-1-ylidene)-N-methylmethanaminium] | induces fluorescence | membrane permeant
2 | CN(C)c1ccc(C(/C=C/c2ccc(N(C)CCCCC(=O)NC(CCS(=O)(=O)O)C(=O)O)cc2)=C2C=CC(=[N+](C)C)C=C2)cc1 (stereo not shown) [SKC728] | induces fluorescence | membrane impermeant
